The values below come from patent publication US9777005B2 (Takeda Pharmaceutical Company Limited, priority 2012, dated 2017).

In this assay the target is T1, human M1 receptor (hCHRM1) (Homo sapiens, UniProt P11229).
T1 construct: expressed in transfected cells; host or cells: CHO-K1
T1 sequence (P11229 1-460): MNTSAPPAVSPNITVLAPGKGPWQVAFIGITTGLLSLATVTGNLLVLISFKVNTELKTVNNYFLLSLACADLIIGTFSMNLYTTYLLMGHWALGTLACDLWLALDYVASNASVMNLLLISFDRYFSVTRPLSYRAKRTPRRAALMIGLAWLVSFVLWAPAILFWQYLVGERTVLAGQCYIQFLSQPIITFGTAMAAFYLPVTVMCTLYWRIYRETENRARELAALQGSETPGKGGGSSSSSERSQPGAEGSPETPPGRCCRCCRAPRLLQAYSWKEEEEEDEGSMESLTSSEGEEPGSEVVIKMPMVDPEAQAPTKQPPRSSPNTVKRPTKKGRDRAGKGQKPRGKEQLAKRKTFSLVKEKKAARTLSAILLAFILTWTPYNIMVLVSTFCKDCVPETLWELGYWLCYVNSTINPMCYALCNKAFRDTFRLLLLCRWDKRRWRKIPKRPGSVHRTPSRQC
Put plainly: Measurement of M1 receptor positive allosteric modulator (M1PAM) activity, calcium fluorescence (FLIPRtetra) in CHO-K1 cells in the presence of acetylcholine at EC20. Format: cell-based. The conditions noted are these: in the presence of acetylcholine at EC20 (final 0.6 nM), CHO-K1 cells expressing hCHRM1; for EC50: inflection point of M1PAM activity, read-out: IP value; for activity (%) at 10 μM: test compound 10 μM. The procedure, abridged: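 PAM activity was measured as calcium flux by FLIPRtetra over 1 min after co-addition of compound and EC20 acetylcholine (final 0.6 nM) to Fluo-4-loaded hCHRM1 CHO-K1 cells. The response was scaled between DMSO (0%) and 1 μM acetylcholine (100%), and the inflection point of the concentration curve gives the IP value.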

As to `Cn1cc(-c2ccc(CN3Cc4cccc(Oc5c(F)cccc5C#N)c4C3=O)c(Cl)c2)cn1` [Example 68, 2-((2-(2-chloro-4-(1-methyl-1H-pyrazol-4-yl)benzyl)-3-oxo-2,3-dihydro-1H-isoindol-4-yl)oxy)-3-fluorobenzonitrile], the EC50 stood at 72 nM and the “activity (%) at 10 μM” value is given as 109%.

Take `Cn1cc(-c2coc(CN3Cc4cccc(Oc5c(F)cccc5C#N)c4C3=O)c2)cn1` [Example 69, 3-fluoro-2-((2-((4-(1-methyl-1H-pyrazol-4-yl)-2-furyl)methyl)-3-oxo-2,3-dihydro-1H-isoindol-4-yl)oxy)benzonitrile]: the EC50 is 410 nM and the “activity (%) at 10 μM” value is given as 103%.

`Cc1cc(-c2ccc(CN3Cc4cccc(Oc5c(F)cccc5C#N)c4C3=O)cc2)ccn1` [Example 72, 3-fluoro-2-((2-(4-(2-methylpyridin-4-yl)benzyl)-3-oxo-2,3-dihydro-1H-isoindol-4-yl)oxy)benzonitrile]: the EC50 is 88 nM and the “activity (%) at 10 μM” value was 102%.

Turning to `Cn1cc(-c2ccc(CN3Cc4cccc(Oc5c(F)cc(F)cc5C#N)c4C3=O)cc2)cn1` [Example 73], the EC50 came out at 24 nM and the “activity (%) at 10 μM” value is 99%.

Take `Cc1nn(C)cc1-c1ccc(CN2Cc3ccnc(OCC4CCCO4)c3C2=O)cc1` (stereo not shown) [Example 78, 2-(4-(1,3-dimethyl-1H-pyrazol-4-yl)benzyl)-4-((tetrahydrofuran-2-yl)methoxy)-1,2-dihydro-3H-pyrrolo[3,4-c]pyridin-3-one]: the EC50 came out at 10 nM and the “activity (%) at 10 μM” value is recorded as 104%.

As for `Cn1ccc(-c2ccc(CN3Cc4ccnc(OCC5CCCO5)c4C3=O)cc2)n1` (stereo not shown) [Example 79, 2-(4-(1-methyl-1H-pyrazol-3-yl)benzyl)-4-((tetrahydrofuran-2-yl)methoxy)-1,2-dihydro-3H-pyrrolo[3,4-c]pyridin-3-one], the EC50 is 29 nM and the “activity (%) at 10 μM” value is on record as 114%.

With `Cc1cc(-c2ccc(CN3Cc4ccnc(OCC5CCCO5)c4C3=O)cc2)ccn1` (stereo not shown) [Example 80], the EC50 was 5.6 nM and the “activity (%) at 10 μM” value was found to be 100%.

Turning to `O=C1c2c(cccc2Oc2c(F)cccc2Cl)CN1Cc1ccc(-c2ccnnc2)cc1` [Example 81, 7-(2-chloro-6-fluorophenoxy)-2-(4-(pyridazin-4-yl)benzyl)isoindolin-1-one], the EC50 is 170 nM and the “activity (%) at 10 μM” value came out at 57%.

On to `O=C1c2c(ccnc2OCC2CCCO2)CN1Cc1ccc(-n2cccn2)cc1F` (stereo not shown) [Example 86, 2-(2-fluoro-4-(1H-pyrazol-1-yl)benzyl)-4-((tetrahydrofuran-2-yl)methoxy)-1,2-dihydro-3H-pyrrolo[3,4-c]pyridin-3-one], for which the EC50 was found to be 17 nM and the “activity (%) at 10 μM” value is 104%.

For `Cc1nn(C)cc1-c1ccc(CN2Cc3ccnc(OCCn4cccn4)c3C2=O)cc1` [Example 225, 2-(4-(1,3-dimethyl-1H-pyrazol-4-yl)benzyl)-4-(2-(1H-pyrazol-1-yl)ethoxy)-1,2-dihydro-3H-pyrrolo[3,4-c]pyridin-3-one], the EC50 came out at 51 nM and the “activity (%) at 10 μM” value amounted to 104%.

With `Cc1nn(C)cc1-c1ccc(CN2Cc3ccnc(OCC4CCCO4)c3C2=O)c(F)c1` (stereo not shown) [Example 229, 2-(4-(1,3-dimethyl-1H-pyrazol-4-yl)-2-fluorobenzyl)-4-((tetrahydrofuran-2-yl)methoxy)-1,2-dihydro-3H-pyrrolo[3,4-c]pyridin-3-one], the EC50 stood at 6.1 nM and the “activity (%) at 10 μM” value is on record as 117%.

In the case of `Cn1ccc(-c2ccc(CN3Cc4ccnc(OCC5CCCO5)c4C3=O)c(F)c2)n1` (stereo not shown) [Example 230, 2-(2-fluoro-4-(1-methyl-1H-pyrazol-3-yl)benzyl)-4-((tetrahydrofuran-2-yl)methoxy)-1,2-dihydro-3H-pyrrolo[3,4-c]pyridin-3-one], the EC50 turned out to be 10 nM and the “activity (%) at 10 μM” value worked out at 113%.

Regarding `Cn1cc(-c2ccc(CN3Cc4ccnc(Oc5c(F)cccc5Cl)c4C3=O)cc2)nn1` [Example 231, 4-(2-chloro-6-fluorophenoxy)-2-(4-(1-methyl-1H-1,2,3-triazol-4-yl)benzyl)-1,2-dihydro-3H-pyrrolo[3,4-c]pyridin-3-one], the EC50 came to 24 nM and the “activity (%) at 10 μM” value is given as 106%.

In the case of `O=C1c2c(ccnc2OCC2CCCO2)CN1Cc1ccc(-n2cc(F)cn2)cc1` (stereo not shown) [Example 234, 2-(4-(4-fluoro-1H-pyrazol-1-yl)benzyl)-4-((tetrahydrofuran-2-yl)methoxy)-1,2-dihydro-3H-pyrrolo[3,4-c]pyridin-3-one], the EC50 is 38 nM and the “activity (%) at 10 μM” value is reported as 91%.

As for `Cc1nn(C)cc1-c1ccc(CN2Cc3cccc(O[C@@H]4COCC[C@H]4O)c3C2=O)cc1` [Example 251, 1,5-anhydro-2-deoxy-4-O-(2-(4-(1,3-dimethyl-1H-pyrazol-4-yl)benzyl)-3-oxo-2,3-dihydro-1H-isoindol-4-yl)-threo-pentitol], the EC50 amounted to 7.5 nM and the “activity (%) at 10 μM” value is 117%.

As to `Cc1nn(C)cc1-c1ccc(CN2Cc3ccnc(OCC4CCCCO4)c3C2=O)cc1` (stereo not shown) [Example 252, 2-(4-(1,3-dimethyl-1H-pyrazol-4-yl)benzyl)-4-((tetrahydro-2H-pyran-2-yl)methoxy)-1,2-dihydro-3H-pyrrolo[3,4-c]pyridin-3-one], the EC50 worked out at 7.6 nM and the “activity (%) at 10 μM” value came to 99%.

Consider `Cn1ccc(-c2ccc(CN3Cc4ccnc(OCC5CCCCO5)c4C3=O)cc2)n1` (stereo not shown) [Example 253, 2-(4-(1-methyl-1H-pyrazol-3-yl)benzyl)-4-((tetrahydro-2H-pyran-2-yl)methoxy)-1,2-dihydro-3H-pyrrolo[3,4-c]pyridin-3-one], for which the EC50 worked out at 22 nM and the “activity (%) at 10 μM” value came to 100%.

`Cn1cc(-c2ccc(CN3Cc4ccnc(OCCC5CC5)c4C3=O)cc2)nn1` [Example 254, 4-(2-cyclopropylethoxy)-2-(4-(1-methyl-1H-1,2,3-triazol-4-yl)benzyl)-1,2-dihydro-3H-pyrrolo[3,4-c]pyridin-3-one]: the EC50 was found to be 67 nM and the “activity (%) at 10 μM” value is on record as 110%.

Take `Cn1cc(-c2ccc(CN3Cc4ccnc(OCCC5CC5)c4C3=O)c(F)c2)nn1` [Example 260, 4-(2-cyclopropylethoxy)-2-(2-fluoro-4-(1-methyl-1H-1,2,3-triazol-4-yl)benzyl)-1,2-dihydro-3H-pyrrolo[3,4-c]pyridin-3-one]: the EC50 came out at 45 nM and the “activity (%) at 10 μM” value amounted to 109%.

Consider `CCC(O)COc1cccc2c1C(=O)N(Cc1ccc(-c3cnn(C)c3)cc1)C2` (stereo not shown) [Example 261, 7-(2-hydroxybutoxy)-2-(4-(1-methyl-1H-pyrazol-4-yl)benzyl)isoindolin-1-one], for which the EC50 came to 25 nM and the “activity (%) at 10 μM” value was determined as 98%.

With `Cc1nn(C)cc1-c1ccc(CN2Cc3ccnc(OCC4CCOCC4)c3C2=O)c(F)c1` [Example 262, 2-(4-(1,3-dimethyl-1H-pyrazol-4-yl)-2-fluorobenzyl)-4-((tetrahydro-2H-pyran-4-yl)methoxy)-1,2-dihydro-3H-pyrrolo[3,4-c]pyridin-3-one], the EC50 amounted to 54 nM and the “activity (%) at 10 μM” value stood at 107%.

Regarding `Cn1cc(-c2ccc(CN3Cc4ccnc(OCC5CCC5)c4C3=O)c(F)c2)nn1` [Example 263, 4-(cyclobutylmethoxy)-2-(2-fluoro-4-(1-methyl-1H-1,2,3-triazol-4-yl)benzyl)-1,2-dihydro-3H-pyrrolo[3,4-c]pyridin-3-one], the EC50 came to 41 nM and the “activity (%) at 10 μM” value turned out to be 106%.

With `Cc1cc(-c2cnc(CN3Cc4cccc(Oc5c(F)cccc5F)c4C3=O)c(F)c2)ccn1` [Example 264, 7-(2,6-difluorophenoxy)-2-((5-fluoro-2′-methyl-3,4′-bipyridin-6-yl)methyl)isoindolin-1-one], the EC50 was determined as 140 nM and the “activity (%) at 10 μM” value was 92%.

With `Cc1nn(C)cc1-c1ccc(CN2Cc3ccnc(OCC4CCOC4)c3C2=O)cc1` (stereo not shown) [Example 265, 2-(4-(1,3-dimethyl-1H-pyrazol-4-yl)benzyl)-4-((tetrahydrofuran-3-yl)methoxy)-1,2-dihydro-3H-pyrrolo[3,4-c]pyridin-3-one], the EC50 stood at 24 nM and the “activity (%) at 10 μM” value came out at 96%.

Take `Cc1cc(-c2ccc(CN3Cc4ccnc(OCC5CCOC5)c4C3=O)cc2)ccn1.Cl` (stereo not shown) [Example 266, 2-(4-(2-methylpyridin-4-yl)benzyl)-4-((tetrahydrofuran-3-yl)methoxy)-1,2-dihydro-3H-pyrrolo[3,4-c]pyridin-3-one hydrochloride]: the EC50 is 45 nM and the “activity (%) at 10 μM” value was 100%.

Take `Cn1ccc(-c2ccc(CN3Cc4cccc(O[C@@H]5CCOC[C@H]5O)c4C3=O)cc2)n1` [Example 272, 1,5-anhydro-2-deoxy-3-O-(2-(4-(1-methyl-1H-pyrazol-3-yl)benzyl)-3-oxo-2,3-dihydro-1H-isoindol-4-yl)-threo-pentitol]: the EC50 amounted to 6.5 nM and the “activity (%) at 10 μM” value was determined as 107%.
